Assay results from patent US9751888B2, “Heterocyclic compounds and uses thereof” (Infinity Pharmaceuticals, Inc., priority 2013, dated 2017).

How the values were obtained:
[1] = molecular target: human Class I PI3 kinase β (Homo sapiens (Human), UniProt P42338); assay: PI3-Kinase Promega ADP-Glo Max assay, β isoform; format: biochemical; settings: 40 nM kinase, 3 mM ATP, 500 uM diC8-PtdInsP; read-out: Promega β PI3K IC50
[2] = molecular target: human Class I PI3 kinase γ (Homo sapiens (Human), UniProt P48736); assay: PI3-Kinase Promega ADP-Glo Max assay, γ isoform; format: biochemical; settings: 40 nM kinase, 3 mM ATP, 500 uM diC8-PtdInsP; read-out: Promega γ PI3K IC50
Method: Promega ADP-Glo Max assay kit (Cat. No. V7002) was utilized to determine IC50 values for α, β, δ and γ isoforms of human Class I PI3 kinases (Millipore). Samples of kinase (20 nM α or δ, 40 nM β or γ isoform) were incubated with compound for 15 minutes at room temperature in reaction buffer (15 mM HEPES pH 7.4, 20 mM NaCl, 1 mM EGTA, 0.02% Tween 20, 10 mM MgCl2, 0.2 mg/mL bovine-γ-globulins) followed by addition of ATP/diC8-PtdInsP mixture to give final concentrations of 3 mM ATP and 500 uM diC8-PtdInsP. Reactions were incubated at room temperature for 2 hours followed by addition of 25 uL of stop solution. After a 40-minute incubation at room temperature, 50 uL of Promega detection mix was added followed by incubation for 1 hour at room temperature. Plates were then read on Envision plate reader in luminescence mode. Data was converted to % inhibition using the following equation below:
[formula] where S is the sample luminescence, Pos is a positive control without added PI3K, Neg is the negative control without added compound. Data was then plotted as % inhibition vs compound concentration.
Certain compounds provided herein were tested in PI3-Kinase Promega Assay using procedures as described above to determine IC50 values for α, β, δ and/or γ isoforms.

p110 δ (RAJI cells) = p110 δ (RAJI cells) (Homo sapiens (Human), UniProt O00329); assay: PI3K-δ selective cellular assay: phospho-AKT in anti-human IgM stimulated RAJI cells; format: cell-based; settings: serum-starved RAJI cells stimulated with anti-human IgM
From the text: A compound's ability in selectively inhibiting PI3K-δ can be assessed using RAJI cells, i.e., B lymphocyte cells derived from lymphoma patients. Briefly, serum-starved RAJI cells are stimulated with anti-human IgM, thereby causing signaling through the B-cell receptors, as described in, for example, He et al., Leukemia Research (2009) 33: 798-802. B-cell receptor signaling is important for the activation, differentiation, and survival of B cells and certain B-cell derived cancers. Reduction of phospho-AKT is indicative of compounds that may inhibit B-cell proliferation and function in certain diseases. […] Certain compounds provided herein were tested in RAJI cell model using procedures as described above.

[3] = molecular target: human Class I PI3 kinase α (Homo sapiens (Human), UniProt P42336); assay: PI3-Kinase Promega ADP-Glo Max assay, α isoform; format: biochemical; settings: 20 nM kinase, 3 mM ATP, 500 uM diC8-PtdInsP; read-out: Promega α PI3K IC50
[4] = molecular target: human Class I PI3 kinase δ (Homo sapiens (Human), UniProt O00329); assay: PI3-Kinase Promega ADP-Glo Max assay, δ isoform; format: biochemical; settings: 20 nM kinase, 3 mM ATP, 500 uM diC8-PtdInsP; read-out: Promega δ PI3K IC50
p110 γ (RAW264.7 cells) = p110 γ (RAW264.7 cells) (Mus musculus (Mouse), UniProt Q9JHG7); assay: PI3K-γ selective cellular assay: phospho-AKT in C5a stimulated RAW264.7 macrophages; format: cell-based; settings: serum-starved RAW264.7 cells stimulated with C5a
Method: Certain compounds provided herein were tested in RAW 264.7 cell model using procedures as described above.

Chain of p110 γ (RAW264.7 cells) (Q9JHG7 whole entry): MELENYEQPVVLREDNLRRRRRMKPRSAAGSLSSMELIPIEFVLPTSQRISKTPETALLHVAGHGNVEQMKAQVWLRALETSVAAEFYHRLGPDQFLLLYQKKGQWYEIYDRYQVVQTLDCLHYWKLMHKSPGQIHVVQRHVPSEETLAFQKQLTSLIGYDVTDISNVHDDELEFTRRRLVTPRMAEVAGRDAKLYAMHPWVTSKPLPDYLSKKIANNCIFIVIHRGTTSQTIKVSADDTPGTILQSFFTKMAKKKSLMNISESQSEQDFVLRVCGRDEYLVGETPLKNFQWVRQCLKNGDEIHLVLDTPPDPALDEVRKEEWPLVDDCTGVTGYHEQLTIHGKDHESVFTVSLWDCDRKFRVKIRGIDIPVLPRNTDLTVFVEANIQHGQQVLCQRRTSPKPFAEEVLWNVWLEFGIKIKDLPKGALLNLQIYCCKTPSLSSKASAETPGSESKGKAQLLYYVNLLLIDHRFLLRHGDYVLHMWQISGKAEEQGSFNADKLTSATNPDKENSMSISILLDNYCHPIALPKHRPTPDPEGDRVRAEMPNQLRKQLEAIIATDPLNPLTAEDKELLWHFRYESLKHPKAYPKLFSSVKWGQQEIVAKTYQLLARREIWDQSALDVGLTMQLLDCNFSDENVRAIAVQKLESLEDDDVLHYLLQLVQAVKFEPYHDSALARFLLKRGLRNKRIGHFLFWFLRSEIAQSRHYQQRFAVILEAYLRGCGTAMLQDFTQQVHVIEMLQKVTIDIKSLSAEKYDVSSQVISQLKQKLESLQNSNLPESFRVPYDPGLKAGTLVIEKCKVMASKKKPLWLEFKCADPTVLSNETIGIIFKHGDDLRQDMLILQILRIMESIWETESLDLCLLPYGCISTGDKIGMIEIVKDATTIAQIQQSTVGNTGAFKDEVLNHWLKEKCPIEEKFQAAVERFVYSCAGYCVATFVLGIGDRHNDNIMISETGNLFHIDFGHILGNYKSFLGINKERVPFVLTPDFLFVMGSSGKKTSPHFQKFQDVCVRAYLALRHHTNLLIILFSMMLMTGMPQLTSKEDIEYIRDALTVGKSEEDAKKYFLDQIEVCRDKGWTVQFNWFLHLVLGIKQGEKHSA
Chain of human Class I PI3 kinase γ (P48736 whole entry, canonical isoform): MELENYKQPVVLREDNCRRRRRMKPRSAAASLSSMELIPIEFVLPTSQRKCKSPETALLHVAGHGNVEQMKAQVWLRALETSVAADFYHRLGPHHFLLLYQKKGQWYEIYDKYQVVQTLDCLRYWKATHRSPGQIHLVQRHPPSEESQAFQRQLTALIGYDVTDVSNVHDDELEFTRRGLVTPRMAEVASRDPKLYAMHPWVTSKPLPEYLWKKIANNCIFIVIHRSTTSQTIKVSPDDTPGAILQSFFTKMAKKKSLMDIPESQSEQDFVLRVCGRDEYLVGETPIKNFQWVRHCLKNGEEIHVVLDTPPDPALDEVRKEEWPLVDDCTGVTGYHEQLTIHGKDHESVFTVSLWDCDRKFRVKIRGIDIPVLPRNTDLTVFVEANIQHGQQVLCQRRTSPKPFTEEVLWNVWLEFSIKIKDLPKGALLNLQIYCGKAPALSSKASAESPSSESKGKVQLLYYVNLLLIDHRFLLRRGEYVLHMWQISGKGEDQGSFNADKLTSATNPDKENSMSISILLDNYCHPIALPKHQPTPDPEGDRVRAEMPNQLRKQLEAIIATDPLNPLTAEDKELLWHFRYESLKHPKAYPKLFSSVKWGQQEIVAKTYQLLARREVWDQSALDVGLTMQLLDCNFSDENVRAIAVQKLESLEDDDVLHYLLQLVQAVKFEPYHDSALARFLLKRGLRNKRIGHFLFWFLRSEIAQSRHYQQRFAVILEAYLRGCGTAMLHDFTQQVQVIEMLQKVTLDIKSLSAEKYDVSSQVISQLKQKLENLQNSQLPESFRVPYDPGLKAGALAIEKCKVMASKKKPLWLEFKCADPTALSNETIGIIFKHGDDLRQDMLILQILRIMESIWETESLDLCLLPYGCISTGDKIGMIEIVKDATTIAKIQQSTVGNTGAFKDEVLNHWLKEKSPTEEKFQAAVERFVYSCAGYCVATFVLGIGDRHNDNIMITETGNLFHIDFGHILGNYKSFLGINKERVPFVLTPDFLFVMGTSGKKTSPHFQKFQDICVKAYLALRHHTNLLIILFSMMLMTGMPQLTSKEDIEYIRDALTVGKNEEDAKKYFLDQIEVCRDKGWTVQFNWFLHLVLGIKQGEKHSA
Chain of p110 δ (RAJI cells) (O00329 whole entry): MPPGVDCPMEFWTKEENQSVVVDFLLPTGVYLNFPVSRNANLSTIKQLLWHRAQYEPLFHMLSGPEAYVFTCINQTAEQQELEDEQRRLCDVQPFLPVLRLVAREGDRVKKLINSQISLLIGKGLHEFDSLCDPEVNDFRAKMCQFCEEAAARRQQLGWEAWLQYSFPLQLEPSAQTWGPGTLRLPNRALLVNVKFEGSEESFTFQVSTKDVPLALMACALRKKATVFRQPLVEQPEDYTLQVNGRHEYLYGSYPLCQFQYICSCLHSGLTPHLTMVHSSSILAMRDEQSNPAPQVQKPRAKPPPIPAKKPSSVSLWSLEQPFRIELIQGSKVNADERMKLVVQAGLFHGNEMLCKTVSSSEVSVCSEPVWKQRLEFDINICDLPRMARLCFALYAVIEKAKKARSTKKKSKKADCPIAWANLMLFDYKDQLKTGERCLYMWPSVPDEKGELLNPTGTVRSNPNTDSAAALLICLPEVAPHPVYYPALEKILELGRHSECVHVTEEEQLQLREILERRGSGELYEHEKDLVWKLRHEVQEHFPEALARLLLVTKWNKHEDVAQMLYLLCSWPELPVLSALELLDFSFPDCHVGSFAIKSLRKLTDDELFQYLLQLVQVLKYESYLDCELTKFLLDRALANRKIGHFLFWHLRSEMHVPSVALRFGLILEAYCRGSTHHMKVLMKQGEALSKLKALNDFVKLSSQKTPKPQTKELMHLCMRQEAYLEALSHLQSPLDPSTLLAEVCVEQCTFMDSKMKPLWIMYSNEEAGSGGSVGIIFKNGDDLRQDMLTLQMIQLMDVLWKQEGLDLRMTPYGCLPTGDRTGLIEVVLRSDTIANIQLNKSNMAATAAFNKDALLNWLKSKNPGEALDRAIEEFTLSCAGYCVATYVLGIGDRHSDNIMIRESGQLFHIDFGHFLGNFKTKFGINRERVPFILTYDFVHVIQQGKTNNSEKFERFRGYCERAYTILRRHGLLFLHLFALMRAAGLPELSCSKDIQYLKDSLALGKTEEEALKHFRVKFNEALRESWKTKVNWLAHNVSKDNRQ
Chain of p110 δ (RAJI cells) (P27986 whole entry partner): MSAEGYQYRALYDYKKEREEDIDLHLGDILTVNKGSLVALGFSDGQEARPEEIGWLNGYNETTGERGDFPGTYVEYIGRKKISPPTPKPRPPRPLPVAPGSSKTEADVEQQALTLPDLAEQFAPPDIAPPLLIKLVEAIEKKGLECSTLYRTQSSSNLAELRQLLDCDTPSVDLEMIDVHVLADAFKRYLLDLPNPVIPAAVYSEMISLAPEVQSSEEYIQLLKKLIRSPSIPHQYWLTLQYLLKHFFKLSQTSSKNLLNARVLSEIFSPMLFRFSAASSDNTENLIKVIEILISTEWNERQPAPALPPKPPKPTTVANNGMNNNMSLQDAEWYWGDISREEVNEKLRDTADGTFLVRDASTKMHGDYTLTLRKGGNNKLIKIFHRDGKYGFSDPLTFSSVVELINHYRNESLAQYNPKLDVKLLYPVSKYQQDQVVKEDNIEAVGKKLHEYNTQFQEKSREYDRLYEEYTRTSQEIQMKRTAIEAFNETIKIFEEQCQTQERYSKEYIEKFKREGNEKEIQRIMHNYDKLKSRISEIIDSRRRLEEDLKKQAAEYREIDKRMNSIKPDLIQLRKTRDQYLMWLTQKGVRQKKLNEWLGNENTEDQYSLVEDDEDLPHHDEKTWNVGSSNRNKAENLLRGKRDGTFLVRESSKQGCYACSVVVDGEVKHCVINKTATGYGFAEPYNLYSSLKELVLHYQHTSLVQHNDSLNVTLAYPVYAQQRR
Chain of human Class I PI3 kinase δ (O00329 whole entry, canonical isoform): as the sequence (O00329 whole entry) above
Chain of human Class I PI3 kinase δ (P27986 whole entry partner, canonical isoform): as the sequence (P27986 whole entry partner) above

IC50 [1] | IC50 [2] | IC50 (p110 δ (RAJI cells)) | IC50 [3] | IC50 [4] | IC50 (p110 γ (RAW264.7 cells)) | Compound
1 to 10 µM | 1 to 10 µM | 1 to 10 µM | 1 to 10 µM | 1 to 10 µM | 0.5 to 1 µM | C[C@H](NC(=O)c1c(N)nn2cccnc12)c1nc2cccc(N3CCOCC3)c2c(=O)n1-c1ccccc1 [Compound 90]
1 to 10 µM | 0.1 to 0.5 µM | 0.01 to 0.1 µM | 1 to 10 µM | 1 to 10 µM | 0.01 to 0.1 µM | Cc1ccc(-n2c([C@H](C)NC(=O)c3c(N)nn4cccnc34)cc3cccc(Cl)c3c2=O)cc1 [Compound 75]
0.01 to 0.1 µM | 0.01 to 0.1 µM | 0.001 to 0.01 µM | 1 to 10 µM | 0.1 to 0.5 µM | 0.01 to 0.1 µM | C[C@H](NC(=O)c1c(N)nn2cccnc12)c1cc2cccc(Cl)c2c(=O)n1-c1cccc(O)c1 [Compound 69]
0.1 to 0.5 µM | 0.1 to 0.5 µM | 0.01 to 0.1 µM | 1 to 10 µM | 0.5 to 1 µM | 0.01 to 0.1 µM | C[C@H](NC(=O)c1c(N)nn2cccnc12)c1cc2cccc(Cl)c2c(=O)n1-c1ccccc1F [Compound 84]
0.5 to 1 µM | 0.1 to 0.5 µM | 0.1 to 0.5 µM | 1 to 10 µM | 1 to 10 µM | 0.01 to 0.1 µM | C[C@H](NC(=O)c1c(N)nn2cccnc12)c1cc2cccc(Cl)c2c(=O)n1-c1cccnc1 [Compound 76]
0.1 to 0.5 µM | 0.01 to 0.1 µM | 0.001 to 0.01 µM | 1 to 10 µM | 0.5 to 1 µM | 0.001 to 0.01 µM | C[C@H](NC(=O)c1c(N)nn2cccnc12)c1cc2cccc(Cl)c2c(=O)n1-c1ccccc1O [Compound 68]
1 to 10 µM | 1 to 10 µM | 0.1 to 0.5 µM | 1 to 10 µM | 1 to 10 µM | 0.1 to 0.5 µM | Cc1cccc2c(=O)n(-c3ccccc3)c([C@H](C)NC(=O)c3c(N)nn4cccnc34)nc12 [Compound 92]
1 to 10 µM | 1 to 10 µM | 0.5 to 1 µM | 1 to 10 µM | 1 to 10 µM | 1 to 10 µM | C[C@H](NC(=O)c1c(N)nn2cccnc12)c1cc2cccc(Cl)c2c(=O)n1-c1ccc(S(C)(=O)=O)cc1 [Compound 80]
1 to 10 µM | 1 to 10 µM | – | 1 to 10 µM | 1 to 10 µM | – | C[C@H](NC(=O)c1nccnc1N)c1oc2ccc(F)cc2c(=O)c1-c1ccccc1 [Compound 97]
1 to 10 µM | 1 to 10 µM | – | 1 to 10 µM | 1 to 10 µM | – | C[C@H](NC(=O)c1c(N)nn2cccnc12)c1nc2ccc(Cl)cc2c(=O)n1-c1ccccc1 [Compound 88]

Continued, molecule first:

Compound | IC50 [1] | IC50 [2] | IC50 (p110 δ (RAJI cells)) | IC50 [3] | IC50 [4] | IC50 (p110 γ (RAW264.7 cells))
C[C@H](NC(=O)c1c(N)nn2cccnc12)c1cc2cccc(Cl)c2c(=O)n1CCc1nnnn1C [Compound 55] | 0.1 to 0.5 µM | 0.1 to 0.5 µM | 0.01 to 0.1 µM | 1 to 10 µM | 1 to 10 µM | 0.1 to 0.5 µM
C[C@H](NC(=O)c1c(N)nn2cccnc12)c1cc2cccc(Cl)c2c(=O)n1CCc1c[nH]cn1 [Compound 21] | 0.1 to 0.5 µM | 1 to 10 µM | – | 1 to 10 µM | 1 to 10 µM | –
CNS(=O)(=O)CCn1c([C@H](C)NC(=O)c2c(N)nn3cccnc23)cc2cccc(Cl)c2c1=O [Compound 54] | 0.1 to 0.5 µM | 0.01 to 0.1 µM | 0.01 to 0.1 µM | 1 to 10 µM | 0.1 to 0.5 µM | 0.01 to 0.1 µM
C[C@H](NC(=O)c1c(N)nn2cccnc12)c1cc2cccc(-c3cnn(CC(F)(F)F)c3)c2c(=O)n1-c1ccccc1 [Compound 50] | 1 to 10 µM | 0.1 to 0.5 µM | 0.1 to 0.5 µM | 1 to 10 µM | 1 to 10 µM | 0.01 to 0.1 µM
C[C@H](NC(=O)c1nc(C2CC2)cnc1N)c1cc2cccc(Cl)c2c(=O)n1-c1ccccc1 [Compound 3] | 1 to 10 µM | 1 to 10 µM | – | 1 to 10 µM | 1 to 10 µM | –
C[C@H](NC(=O)c1c(N)nn2cccnc12)c1cc2cccc(CCc3cnn(C)c3)c2c(=O)n1-c1ccccc1 [Compound 66] | – | 0.5 to 1 µM | 0.01 to 0.1 µM | – | – | 0.001 to 0.01 µM
